Laboratory results reported in US20250011788A1, “NUCLEIC ACID INTERFERENCE PHARMACEUTICAL COMPOSITION, AND DRUG FOR TREATING COLORECTAL CANCER, GASTRIC CANCER, AND PROSTATE CANCER” (SIRNAOMICS BIOPHARMACEUTICALS (SUZHOU) CO., LTD., priority 2022, published 2025).
d = 2'-deoxy (DNA); r = 2'-OH (RNA)

Experiments:
RM-1 cells tumor graft = test: Mouse subcutaneous tumor graft model of prostate cancer RM-1 cells; type: in vivo, C57BL/6J mice
Description: Next, another tumor graft model was established to further validate the pharmacodynamic evaluation of candidate drug on the growth of mouse tumor graft of mouse prostate cancer RM-1 cells. The nano drug formulation was prepared by the method described above. RM-1 subcutaneous tumor-bearing mice were modeled as follows: C57BL/6J mice were each inoculated subcutaneously with 5×10^6 cells. The mice were grouped on the basis of random numbers when the mean tumor volume reached about 100-120 mm^3. The dosing regimen was as follows: for STP500, 3 mg/kg, intravenously administered (i.v.) via the tail vein, every 2 days (Q2D); for The positive control (docetaxel), 15 mg/kg, intraperitoneally administered (i.p.), every week (QW). After the first dose, the weight and tumor volume of the mice were recorded every 2 days, and the tumor volume was calculated by V=0.5×(Dmax×Dmin^2), where Dmax refers to the longest diameter of the tumor, and Dmin refers to the shortest diameter of the tumor. A tumor volume curve was drawn at the end of the experiment. The mice were euthanized, and tumors were removed and weighed. TGItw (percentage change in Tumor weight) was calculated by:
(§1) [formula] • Mean TWtreat: the mean tumor weight of the mice in the treatment group at the end of treatment; • Mean TWvehicle: the Mean tumor weight of mice in the Vehicle group at the end of treatment.

[1] = system: MKN45 cells tumor xenograft; test: Mouse subcutaneous tumor xenograft model of gastric cancer MKN45 cells; type: in vivo, BALB/c-Nude mice
Description: Next, another tumor graft model was established to further validate the pharmacodynamic evaluation of candidate drug on the growth of mouse tumor xenograft of human gastric cancer MKN45 cells. The nano drug formulation was prepared by the method described above. MKN45 subcutaneous tumor-bearing mice were modeled as follows: BALB/c-Nude mice were each inoculated subcutaneously with 5×10^6 MKN45 cells. Randomization was performed when the mean tumor volume reached about 100-120 mm^3. […] After the first dose, the weight and tumor volume of the mice were recorded every 2 days, and the tumor volume was calculated by V=0.5×(Dmax×Dmin^2), where Dmax refers to the longest diameter of the tumor, and Dmin refers to the shortest diameter of the tumor. A tumor volume curve was drawn at the end of the experiment. The mice were euthanized, and tumors were removed and weighed. TGItw (percentage change in tumor weight) was calculated by:
as §1

MC38 cells tumor graft = test: Mouse subcutaneous tumor graft model of colorectal cancer MC38 cells; type: in vivo, C57BL/6 mice; details: STP500 2 mg/kg i.v. Q2D, siMD8 1 mg/kg i.v. Q2D, Sorafenib 30 mg/kg p.o. QD
From the text: Based on the data from previous in-vitro experiments, two siRNAs (MD8-21-hm5# and TF1-25-hm5# in this example) were mixed at a mass ratio of 1/1, and encapsulated the mixture into the HKP(+H) (histidine-lysine polymer) carrier through patented PNP technology to prepare the nanoparticle formulation (the nano drug formulation STP500 prepared in Example 8). The tumor growth inhibitory activity of the candidate siRNA sequence was validated by a mouse tumor xenograft model (colorectal cancer cells MC38).
C57BL/6 mice were each inoculated subcutaneously with 1×10^6 MC38 cells per mouse, and randomized groups when the mean tumor volume reached about 100 mm^3. The dosing regimen was as follows: for STP500, 2 mg/kg, intravenously administered (i.v.) via the tail vein, every 2 days (Q2D); for Small nucleic acid monotherapy MD8 (MyD88 siRNA, also known as siMyD88), 1 mg/kg, intravenously administered (i.v.) via the tail vein, every 2 days (Q2D); and for the positive control group (Sorafenib), 30 mg/kg, intragastrically administered p.o., every day (QD). After the first dose, the weight and tumor volume of the mice were recorded every 2 days, and the tumor volume was calculated by V=0.5×(Dmax×Dmin^2), where Dmax refers to the longest diameter of the tumor, and Dmin refers to the shortest diameter of the tumor. […] TGItw (percentage change in tumor weight) was calculated by: […]

MyD88 gene (mRNA) [2] = test: EC50 of MyD88 mRNA knockdown in human-derived cell lines; type: cell-based
Description: Then, for these candidate siRNA sequences, multiple concentration gradients were set in human-derived cell lines and mouse-derived cell lines respectively for cell transfection, and their EC50 values (half-maximal effective concentration) were obtained. […] In the mouse-derived cell lines, EC50<10 nM only occurs for MD8-21-hm5# in mouse prostate cancer (RM-1) cells and colorectal cancer (MC38) cells as well as MD8-21-hm4# in colorectal cancer (MC38) cells. Therefore, based on the above data, the human-mouse homologous sequence MD8-21-hm5# is preferably used for pharmacodynamic evaluation of animal models in vivo.

MyD88 gene (mRNA) [3] = test: In vitro screening of MyD88 siRNA: MyD88 mRNA silencing by RT-PCR; type: cell-based, human; details: 100 nM siRNA; for target gene silencing effect in colorectal cells: lipo2000, 20-24 h
Description: Some cell lines screened out in Example 2 were used for primary siRNA screening, including a breast cancer cell line (MDA-MB-231), a neuroglioma cell line (U87-MG), a human brain glioma cell line (T98G), a human colorectal cancer epithelial cell line (DLD-1) and a human colon cancer cell line (RKO). Specifically, the MyD88 siRNA sequence in Table 1 was transfected into the above five cells by lipo2000, and the transfection concentration was 100 nM (calculated by siRNA). After transfection for 20-24 h, the total RNA of the cells was extracted, and the mRNA expression level of the target gene MyD88 was detected by RT-PCR technology. […] The three specifical sequences are MD8-21-hm3# (NTS00025-21-hm3# in FIG. 3), MD8-21-hm4# (NTS00025-21-hm4# in FIG. 3) and MD8-21-hm5# (NTS00025-21-hm5# in FIG. 3).

MyD88 protein = test: Western Blot knockdown of target gene protein in cell lines (MyD88); type: cell-based, human and mouse cell lines; details: MDA-MB-231, RKO and RM-1 cells; 100 nM and 10 nM, 48 h
DLD-1 cells = test: In vitro cell migration (wound healing/scratch) test; type: cell-based, human; details: 96 h, 100 and 10 nM, dose-dependent
Description: On the day before the initiation of the experiment, a 12-well plate was prepared, a 2-well culture-insert for wound healing (ibidi, 80209) was placed in the center of the culture dish, and cells were inoculated into the 2-well culture-insert at 1×10^4 cells per well and cultured overnight. On the second day, siMyD88 was transfected into the cells at […] and 10 nM, and the transfection experiment was completed. After transfection for 24 h, the 2-well culture-insert for wound healing was gently removed with tweezers (to avoid cell shedding), and the 12-well plate was added with a medium containing 1% serum to continue cell culture. At the same time, a photograph was taken under the microscope as the 0 h cell migration data. The culture was continued for 24 h and 96 h, and the cell migration was recorded under the microscope. The cell migration was determined by comparing the wound distance at the initial scratch (0 h) versus at the later observation points (24 h and 96 h).

TGF-β1 protein = test: Western Blot knockdown of target gene protein in cell lines (TGF-β1); type: cell-based, human; details: RKO cell line; 100 nM and 10 nM, 48 h
Description: The target gene knockdown effects of siRNA sequences on the targets TGF-β1 and MyD88 at the cellular level were evaluated by Western Blot. The procedures were as follows: on The day before the initiation of the experiment, the cells were inoculated in a 6-well plate at 1×10^6 cells per well, and cultured overnight. On the second day, siMyD88 and siTF1 were transfected into the cells at 100 nM and 10 nM respectively. After transfection for 48 h, the cells were collected and transferred to centrifuge tubes. RIPA lysate was added to each tube to extract total cell protein, and then the total cell protein concentration was quantified by a BCA protein quantification method. Western Blot analysis was performed on all protein samples using the following antibodies: MyD88 primary antibody (ab219413, 1:1000), TGF-β1 primary antibody (ab215715, 1:1000), Goat Anti-Rabbit IgG H&L (HRP) (ab205718, 1:10000). After the experiment, the ChemiDoc™ MP Imaging System (BIO-RAD) was used to capture the results.
Western Blot analysis of protein expression in candidate MyD88 siRNA (MD8-21-hm5#) plus TGF-β1 siRNA (TF1-21-h1#) in three cell lines in in-vitro human breast cancer cell line (MDA-MB-231) (FIG. 5A), human colon cancer cell line (RKO) (FIG. 5B) and mouse prostate cancer (RM-1) cells (FIG. 5C).

With `CC(=O)O[C@@]12CO[C@@H]1C[C@H](O)[C@@]1(C)C(=O)[C@H](O)C3=C(C)[C@@H](OC(=O)[C@H](O)[C@@H](NC(=O)OC(C)(C)C)c4ccccc4)C[C@@](O)([C@@H](OC(=O)c4ccccc4)[C@H]21)C3(C)C` [Docetaxel] the “effect on the weight of mice” value (RM-1 cells tumor graft; STP500 3 mg/kg Q2D, Docetaxel 15 mg/kg i.p. QW) was “no significant difference”, the “growth of prostate cancer tumor graft” value (RM-1 cells tumor graft; after 8 doses, compared with control group) was “did not show a tumor-killing effect” and the “Tumor weight, Mean” value (RM-1 cells tumor graft; end of treatment, STP500 3 mg/kg i.v. Q2D, Docetaxel 15 mg/kg i.p. QW) was 4.72 g. For the same molecule, the “TGItw (tumor growth inhibition by tumor weight)” value (RM-1 cells tumor graft; versus Vehicle, STP500 3 mg/kg i.v. Q2D, Docetaxel 15 mg/kg i.p. QW) was −4%.
With `O=C1[O][Pt]2([NH][C@@H]3CCCC[C@H]3[NH]2)[O]C1=O` [Oxaliplatin] the “growth of gastric cancer tumor graft” value ([1]; after 7 doses, compared with control group) was “better tumor inhibition effect”, the “Tumor weight, Mean” value ([1]; end of treatment, STP500 3 mg/kg i.v. Q2D, Oxaliplatin 7.5 mg/kg i.p. QD) was 0.16 g and the “TGItw (tumor growth inhibition by tumor weight)” value ([1]; versus Vehicle, STP500 3 mg/kg i.v. Q2D, Oxaliplatin 7.5 mg/kg i.p. QD) was 58%.
With `CNC(=O)c1cc(Oc2ccc(NC(=O)Nc3ccc(Cl)c(C(F)(F)F)c3)cc2)ccn1` [Sorafenib] the “Tumor weight, Mean” value (MC38 cells tumor graft; end of treatment) was 0.3571 g and the “TGItw (tumor growth inhibition by tumor weight)” value (MC38 cells tumor graft; versus Vehicle) was 12.28%.
In the case of “MD8-21-h5#: MyD88 siRNA; sense GCAUACACACGUUUUUCUAdTdT (SEQ ID NO: 9), antisense UAGAAAAACGUGUGUAUGCdTdT (SEQ ID NO: 10) (sense GCAUACACACGUUUUUCUATT; antisense UAGAAAAACGUGUGUAUGCTT; sugars from the 5' end r19 d2, backbone not given here)”, the “effect in EC50 comparison” value (MyD88 gene (mRNA) [2]) is reported as “relatively good” and the “ranking of silencing effect among human-derived sequences” value (MyD88 gene (mRNA) [3]; five human cell lines) is reported as “best effect”.
In the case of “MD8-21-hm3#: MyD88 siRNA; sense CAGAGCAAGGAAUGUGACUdTdT (SEQ ID NO: 27), antisense AGUCACAUUCCUUGCUCUGdTdT (SEQ ID NO: 28) (sense CAGAGCAAGGAAUGUGACUTT; antisense AGUCACAUUCCUUGCUCUGTT; sugars from the 5' end r19 d2, backbone not given here)”, the “target gene silencing effect in colorectal cells” value (shortened to “target gene silencing effect”) (MyD88 gene (mRNA) [3]) is reported as “about 85%”.
“MD8-21-hm4#: MyD88 siRNA; sense GCAAGGAAUGUGACUUCCAdTdT (SEQ ID NO: 29), antisense UGGAAGUCACAUUCCUUGCdTdT (SEQ ID NO: 30) (sense GCAAGGAAUGUGACUUCCATT; antisense UGGAAGUCACAUUCCUUGCTT; sugars from the 5' end r19 d2, backbone not given here)” was tested, and the “target gene silencing effect” value (MyD88 gene (mRNA) [3]) was “about 85%”.
“MD8-21-hm5#: MyD88 siRNA; sense GAAUGUGACUUCCAGACCAdTdT (SEQ ID NO: 31), antisense UGGUCUGGAAGUCACAUUCdTdT (SEQ ID NO: 32) (sense GAAUGUGACUUCCAGACCATT; antisense UGGUCUGGAAGUCACAUUCTT; sugars from the 5' end r19 d2, backbone not given here)” was tested, and the “effect in EC50 comparison” value (MyD88 gene (mRNA) [2]) was “relatively good”, the “knockdown effect on MyD88 protein” value (MyD88 protein) was “obvious knockdown effect” and the “inhibitory effect on in vitro migration ability” value (DLD-1 cells) was “significant inhibitory effect”. The “target gene silencing effect” value (MyD88 gene (mRNA) [3]) was “about 85%”.
In the case of “TF1-21-h1#: TGF-β1 siRNA; sense GCAGAGUACACACAGCAUAdTdT (SEQ ID NO: 37), antisense UAUGCUGUGUGUACUCUGCdTdT (SEQ ID NO: 38) (sense GCAGAGUACACACAGCAUATT; antisense UAUGCUGUGUGUACUCUGCTT; sugars from the 5' end r19 d2, backbone not given here)”, the “knockdown effect on TGF-β1 protein” value (TGF-β1 protein) is reported as “obvious knockdown effect”.
